Values quoted from earlier work as cited in patent publication US20250255927A1, “COMPOSITIONS AND METHODS FOR ALLEVIATING ADVERSE EFFECTS FROM RESPONSIBLE ALCOHOL CONSUMPTION” (Cheers Health, Inc., priority 2023, published 2025).

Tests used:
pain = settings: 1 g of salicin
[1] = rat models

SMILES	amount of aspirin with comparable pain relief effect (pain) [mg]	time to reach the brain without any metabolic change [1] [min]
OCc1ccccc1O[C@@H]1O[C@H](CO)[C@@H](O)[C@H](O)[C@H]1O [salicin]	~620	–
CCNC(=O)CC[C@H](N)C(=O)O [L-Theanine]	–	≤ 30
